In this series the test system is Huh-7 cells. Nature of the series: LC/MS analysis of nucleotides formed after 4 hr incubation of 50 μM drug in Huh-7 cells. Format: in vitro ADME. The following applies: 4 hr incubation in Huh-7 cells. How it is done:
Shown below are two examples of the LC/MS qualitative analysis of nucleotides formed after 4 h incubation of 50 μM N^4-hydroxycytidine nucleosides and N^4-hydroxycytidine monophosphate prodrugs in Huh-7 cells.

As to `C[C@@]1(O)[C@H](O)[C@@H](CO)O[C@H]1n1ccc(NO)nc1=O` [Compound 37, 1-((2R,3R,4R,5R)-3,4-dihydroxy-5-(hydroxymethyl)-3-methyltetrahydrofuran-2-yl)-4-(hydroxyamino)pyrimidin-2(1H)-one], the “Metabolite 2′-OH-2′-Me-U formed in cells” value is “BLOQ”, the “Metabolite 2′-OH-2′-Me-UDP formed in cells” value is “BLOQ”, the “Metabolite 2′-OH-2′-Me-UMP formed in cells” value is “BLOQ” and the “Metabolite 2′-OH-2′-Me-UTP formed in cells” value is “BLOQ”. For the same compound, the “Metabolite 36-DP formed in cells” value is reported as “BLOQ”, the “Metabolite 36-MP formed in cells” value is on record as “BLOQ”, the “Metabolite 36-TP formed in cells” value is “BLOQ” and the “Metabolite 36 formed in cells” value is “BLOQ”. Further, the “Metabolite 37-DP formed in cells” value is recorded as “BLOQ”, the “Metabolite 37-MP formed in cells” value was “BLOQ” and the “Metabolite 37 in cells” value is on record as “BLOQ”.

`C[C@@]1(F)[C@H](O)[C@@H](CO)O[C@H]1n1ccc(NO)nc1=O` [Compound 39, 1-((2R,3R,4R,5R)-3-fluoro-4-hydroxy-5-(hydroxymethyl)-3-methyltetrahydrofuran-2-yl)-4-(hydroxyamino)pyrimidin-2(1H)-one]: the “Metabolite 2′-F-2′-Me-U formed in cells” value is given as “BLOQ”, the “Metabolite 2′-F-2′-Me-UDP formed in cells” value was “BLOQ”, the “Metabolite 2′-F-2′-Me-UMP formed in cells” value is recorded as “BLOQ” and the “Metabolite 38-MP formed in cells” value is given as “BLOQ”. For the same compound, the “Metabolite 38 formed in cells” value is listed as “BLOQ”, the “Metabolite 39-DP formed in cells” value is listed as “BLOQ”, the “Metabolite 39-MP formed in cells” value was “BLOQ” and the “Metabolite 39-TP formed in cells” value is given as “BLOQ”.

Take `CCOC(=O)[C@H](C)NP(=O)(OC[C@H]1O[C@@H](n2ccc(NO)nc2=O)[C@](C)(O)[C@@H]1O)Oc1ccccc1` (stereo partly drawn) [Compound 44, (2S)-ethyl 2-(((((2R,3R,4R,5R)-3,4-dihydroxy-5-(4-(hydroxyamino)-2-oxopyrimidin-1(2H)-yl)-4-methyltetrahydrofuran-2-yl)methoxy)(phenoxy)phosphoryl)amino)propanoate]: the “Metabolite 2′-OH-2′-Me-U formed in cells” value is “BLOQ”, the “Metabolite 2′-OH-2′-Me-UDP formed in cells” value is given as “BLOQ”, the “Metabolite 2′-OH-2′-Me-UMP formed in cells” value is on record as “BLOQ” and the “Metabolite 36-MP formed in cells” value is “BLOQ”. Besides, the “Metabolite 36 formed in cells” value is listed as “BLOQ”, the “Metabolite 37 in cells” value is “BLOQ” and the “Metabolite 44 (prodrug) in cells” value is 13.3 ± 1.7 pmol/10^6 cells.

For the compound `CCOC(=O)[C@H](C)NP(=O)(OC[C@H]1O[C@@H](n2ccc(NO)nc2=O)[C@](C)(F)[C@@H]1O)Oc1ccccc1` (stereo partly drawn) [Compound 51, (2S)-ethyl 2-(((((2R,3R,4R,5R)-4-fluoro-3-hydroxy-5-(4-(hydroxyamino)-2-oxopyrimidin-1(2H)-yl)-4-methyltetrahydrofuran-2-yl)methoxy)(phenoxy)phosphoryl)amino)propanoate], the “Metabolite 2′-F-2′-Me-U formed in cells” value is on record as “BLOQ”, the “Metabolite 2′-F-2′-Me-UDP formed in cells” value is “BLOQ”, the “Metabolite 2′-F-2′-Me-UMP formed in cells” value is “BLOQ” and the “Metabolite 51 (prodrug) in cells” value was determined as 71.5 ± 2.3 pmol/10^6 cells.

(Values after patent publication US9809616B2, “Pyrimidine nucleosides and their monophosphate prodrugs for the treatment of viral infections and cancer” (Cocrystal Pharma, Inc., priority 2012, dated 2017).)
